As a reminder, the IC50 is the concentration at which inhibition is half-maximal.

Each structure is given as a SMILES string.

Here are results for 17 compounds from ChEMBL document CHEMBL4038297, “Fluorinated tranylcypromine analogues as inhibitors of lysine-specific demethylase 1 (LSD1, KDM1A)” (Bioorg Med Chem Lett, 2017).

The target of experiment [1] is Lysine-specific histone demethylase 1A (Homo sapiens, UniProt O60341). Nature of the experiment: Inhibition of recombinant human His-tagged LSD1 expressed in Escherichia coli BL21 (DE3) using H3K4me2 peptide as substrate preincubated for 10 mins followed by substrate addition measured after 20 mins by Amplex red dye based fluorescence assay.
Experiment [2] deals with THP-1. Nature of the experiment: Antiproliferative activity against human THP1 cells after 72 hrs by CellTitre-Glo assay. The note with it: THP-1, 72 h.
Experiment [3] concerns MV4-11. Nature of the experiment: Antiproliferative activity against human MV411 cells after 72 hrs by CellTitre-Glo assay. To be noted: MV4-11, 72 h.

For `N[C@H]1C[C@@]1(F)c1ccccc1`, the concentration for half-maximal inhibition (IC50) in experiment [1] was above 25 µM.
In the case of `N[C@H]1C[C@]1(F)c1cccc(F)c1` (relative stereo), the concentration for half-maximal inhibition (IC50) in experiment [2] was found to be 1.6 µM; in experiment [3], 4.9 µM.
As to `CCOc1ccc([C@]2(F)C[C@@H]2N)cc1` (relative stereo), the concentration for half-maximal inhibition (IC50) in experiment [1] is above 50 µM.
Consider `N[C@@H]1C[C@H]1c1ccccc1.N[C@H]1C[C@@H]1c1ccccc1` (racemic) [TRANYLCYPROMINE], for which the IC50 in experiment [2] stood at 810 µM; in experiment [3], 630 µM.
With `N[C@H]1C[C@]1(F)c1ccccc1`, in experiment [1], the IC50 is above 25 µM.
The same measure, in the same setting: under `COc1ccc([C@]2(F)C[C@@H]2N)cc1` stands above 25 µM.
Take `N[C@H]1C[C@@]1(F)c1ccc(F)cc1`: the IC50 in experiment [1] was above 25 µM.
Consider `N[C@H]1C[C@@]1(F)c1ccc([N+](=O)[O-])cc1` (relative stereo), for which, in experiment [1], the IC50 is above 50 µM.
As for `N[C@H]1C[C@]1(F)c1cccc([N+](=O)[O-])c1` (relative stereo), the half-inhibitory concentration (IC50) in experiment [2] and in experiment [3] was above 30 µM in each case.
Turning to `CCOc1ccc([C@@]2(F)C[C@@H]2N)cc1` (relative stereo), the 50% inhibitory concentration (IC50) in experiment [1] is above 50 µM.
On to `COc1cccc([C@@]2(F)C[C@@H]2N)c1` (relative stereo), for which the values for the IC50 in experiment [2] and in experiment [3] were 8.5 µM and 1.9 µM, respectively.
Take `Cc1ccc([C@]2(F)C[C@@H]2N)cc1`: the half-maximal inhibitory concentration (IC50) in experiment [1] is above 25 µM.
For the compound `N[C@H]1C[C@@]1(F)c1cccc(F)c1` (relative stereo), the half-maximal inhibitory concentration (IC50) in experiment [2] came to 7 µM; in experiment [3] it was 8.2 µM.
As for `COc1ccc([C@@]2(F)C[C@@H]2N)cc1`, in experiment [1], the 50% inhibitory concentration (IC50) was above 25 µM.
`N[C@H]1C[C@]1(F)c1ccc([N+](=O)[O-])cc1` (relative stereo): in experiment [1], the IC50 was above 50 µM.
Same read-out and setting: next, `N[C@H]1C[C@]1(F)c1ccc(F)cc1`: above 25 µM; `Cc1ccc([C@@]2(F)C[C@@H]2N)cc1`: above 25 µM.
